One block for each compound: values may come before it.
Key:
[1] = biological target: T1, Adenosine receptor A1 (Homo sapiens, UniProt P30542); experiment: biochemical
T1 sequence (P30542 whole entry): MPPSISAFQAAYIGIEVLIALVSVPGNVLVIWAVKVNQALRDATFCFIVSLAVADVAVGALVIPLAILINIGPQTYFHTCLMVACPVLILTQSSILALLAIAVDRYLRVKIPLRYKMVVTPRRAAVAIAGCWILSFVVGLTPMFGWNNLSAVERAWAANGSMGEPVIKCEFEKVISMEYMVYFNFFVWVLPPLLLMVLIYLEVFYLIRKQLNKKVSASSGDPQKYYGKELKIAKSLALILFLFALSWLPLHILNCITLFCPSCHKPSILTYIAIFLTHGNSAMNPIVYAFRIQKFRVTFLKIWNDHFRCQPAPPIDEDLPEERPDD
Description: Displacement of [3H]DPCPX from human adenosine A1 receptor expressed in CHO cells after 90 mins by filtration binding assay

[2] = biological target: T2, Adenosine receptor A3 (Homo sapiens, UniProt P0DMS8); experiment: Displacement of [3H]NECA from human adenosine A3 receptor expressed in human HeLa cells after 3 hrs by filtration binding assay; format: cell-based
T2 sequence (P0DMS8 whole entry): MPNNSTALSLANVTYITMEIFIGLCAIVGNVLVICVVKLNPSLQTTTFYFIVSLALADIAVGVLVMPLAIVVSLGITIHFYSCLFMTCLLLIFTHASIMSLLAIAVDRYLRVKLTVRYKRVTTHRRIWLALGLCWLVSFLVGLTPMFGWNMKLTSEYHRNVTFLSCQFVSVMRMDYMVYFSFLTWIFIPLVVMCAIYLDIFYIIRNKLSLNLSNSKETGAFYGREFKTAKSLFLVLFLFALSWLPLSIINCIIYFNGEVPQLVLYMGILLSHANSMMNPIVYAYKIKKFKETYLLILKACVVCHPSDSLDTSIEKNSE

[3] = biological target: T3, Adenosine receptor A2b (Homo sapiens, UniProt P29275); experiment: biochemical
T3 sequence (P29275 whole entry): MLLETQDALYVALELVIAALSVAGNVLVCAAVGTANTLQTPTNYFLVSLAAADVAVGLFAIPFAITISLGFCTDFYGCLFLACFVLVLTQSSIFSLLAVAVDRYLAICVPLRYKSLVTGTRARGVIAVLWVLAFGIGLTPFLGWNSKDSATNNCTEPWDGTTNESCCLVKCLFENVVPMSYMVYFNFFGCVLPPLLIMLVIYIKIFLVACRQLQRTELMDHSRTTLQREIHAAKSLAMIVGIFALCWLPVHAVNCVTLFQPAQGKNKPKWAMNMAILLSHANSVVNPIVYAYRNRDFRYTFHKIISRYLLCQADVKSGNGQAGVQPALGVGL
Description: Displacement of [3H]DPCPX from human adenosine A2B receptor expressed in HEK293 cells after 60 mins by filtration binding assay

[4] = biological target: T4, Adenosine receptor A2a (Homo sapiens, UniProt P29274); experiment: Displacement of [3H]ZM241385 from human adenosine A2A receptor expressed in human HeLa cells after 1 hr by scintillation proximity assay; format: cell-based
T4 sequence (P29274 whole entry): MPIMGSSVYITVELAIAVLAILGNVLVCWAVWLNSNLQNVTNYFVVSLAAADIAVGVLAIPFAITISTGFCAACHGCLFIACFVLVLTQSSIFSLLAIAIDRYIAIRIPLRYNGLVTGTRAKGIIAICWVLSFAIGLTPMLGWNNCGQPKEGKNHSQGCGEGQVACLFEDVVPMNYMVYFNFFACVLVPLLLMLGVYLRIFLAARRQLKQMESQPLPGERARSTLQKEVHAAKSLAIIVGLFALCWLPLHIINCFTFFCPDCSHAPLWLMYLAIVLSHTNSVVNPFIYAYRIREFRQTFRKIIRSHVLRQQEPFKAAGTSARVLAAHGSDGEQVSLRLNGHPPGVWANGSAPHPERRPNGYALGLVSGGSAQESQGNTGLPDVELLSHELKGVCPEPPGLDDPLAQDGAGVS

[5] = biological target: T5, Adenosine receptor A3 (Homo sapiens) (UniProt P0DMS8); experiment: Inhibition of [3H]NECA binding to human adenosine A3 receptor expressed in human HeLa cells at 1 uM after 3 hrs by filtration binding assay; format: cell-based
T5 sequence (whole entry): T2 sequence (P0DMS8 whole entry)

[6] = Cmax in rat at 1 mg/kg, iv; format: ADME, organism-based; design: dose 1 mg/kg, route intravenous; details: in vivo
[7] = Volume of distribution at steady state in rat at 1 mg/kg, iv; format: ADME, organism-based; design: dose 1 mg/kg, route intravenous; details: in vivo, read-out: Vdss
[8] = Metabolic stability in rat liver microsomes assessed as turnover at 5 uM after 30 mins in absence of NADPH; format: ADME, Microsome; details: read-out: Activity
[9] = Clearance in rat at 1 mg/kg, iv; format: ADME, organism-based; design: dose 1 mg/kg, route intravenous; details: in vivo
[10] = Terminal half life in rat at 1 mg/kg, iv; format: ADME, organism-based; design: dose 1 mg/kg, route intravenous; details: in vivo, read-out: beta t1/2 (converted)
[11] = Metabolic stability in human liver microsomes assessed as turnover at 5 uM after 30 mins in presence of NADPH; format: ADME, Microsome; details: read-out: Activity
[12] = AUC (0 to infinity) in rat at 1 mg/kg, iv; format: ADME, organism-based; design: time infinity, dose 1 mg/kg, route intravenous; details: plasma
[13] = biological target: T4, Adenosine receptor A2a; experiment: Inhibition of [3H]ZM241385 binding to human adenosine A2A receptor expressed in human HeLa cells at 1 uM after 1 hr by scintillation proximity assay; format: cell-based
[14] = biological target: T6, Adenosine receptor A1 (Homo sapiens) (UniProt P30542); experiment: Inhibition of [3H]DPCPX binding to human adenosine A1 receptor expressed in CHO cells at 1 uM after 90 mins by filtration binding assay; format: cell-based
T6 sequence (whole entry): T1 sequence (P30542 whole entry)

[15] = biological target: T7, Adenosine receptor A2b (Homo sapiens) (UniProt P29275); experiment: Inhibition of [3H]DPCPX binding to human adenosine A2B receptor expressed in HEK293 cells at 1 uM after 60 mins by filtration binding assay; format: cell-based
T7 sequence (whole entry): T3 sequence (P29275 whole entry)

[16] = Metabolic stability in human liver microsomes assessed as turnover at 5 uM after 30 mins in absence of NADPH; format: ADME, Microsome; details: read-out: Activity
[17] = Metabolic stability in rat liver microsomes assessed as turnover at 5 uM after 30 mins in presence of NADPH; format: ADME, Microsome; details: read-out: Activity
[18] = Tmax in rat at 10 mg/kg, po; format: ADME, organism-based; design: dose 10 mg/kg, route oral; details: in vivo
[19] = Oral bioavailability in rat at 10 mg/kg; format: ADME, organism-based; details: in vivo

Ki [3]: 30 nM
Ki [1]: 635 nM
Ki [4]: 635 nM
inhibition [5]: 5%
SMILES: O=C(Nc1ccc(-c2ccncc2)c(-c2cnco2)n1)C1CC1

Ki [3]: 47 nM
Cmax [6]: 822 ng/mL
Ki [1]: 940 nM
Vd [7]: 1 L/kg
metabolised at 0.5 h, 5 µM [8]: 12%
clearance [9]: 35 mL/min/kg
Ki [4]: 862 nM
inhibition [5]: 2%
half-life [10]: 30 min
metabolised at 0.5 h, 5 µM [11]: 0%
AUC(0-inf) [12]: 485 ng·h/mL
SMILES: O=C(Nc1ccc(-c2ccncc2)c(-c2ccccn2)n1)C1CC1

Ki [3]: 2 nM
metabolised at 0.5 h, 5 µM [16]: 86%
Ki [1]: 123 nM
metabolised at 0.5 h, 5 µM [8]: 100%
Ki [4]: 61 nM
Ki [2]: 817 nM
SMILES: O=C(Nc1ccc(-c2ccncc2)c(-c2ccccc2F)n1)C1CC1

Ki [3]: 33 nM
inhibition [14]: 21%
Ki [4]: 1470 nM
inhibition [5]: 10%
SMILES: O=C(Nc1ccc(-c2ccncc2)c(-c2cccnc2)n1)C1CC1

Ki [3]: 134 nM
inhibition [14]: 1%
Ki [4]: 1370 nM
inhibition [5]: 12%
SMILES: O=C(Nc1ccc(-c2ccncc2)c(-c2cocn2)n1)C1CC1

Ki [3]: 208 nM
inhibition [13]: 9%
inhibition [14]: 3%
inhibition [5]: 3%
SMILES: O=C(Nc1ccc(-c2ccncc2)c(-c2ccncn2)n1)C1CC1

Ki [3]: 202 nM
inhibition [13]: 4%
inhibition [14]: 3%
inhibition [5]: 1%
SMILES: O=C(Nc1ccc(-c2ccncc2)c(-c2cc[nH]n2)n1)C1CC1

Ki [3]: 14 nM
Ki [1]: 338 nM
Ki [4]: 163 nM
inhibition [5]: 6%
SMILES: O=C(Nc1ccc(-c2ccncc2)c(-c2ccncc2)n1)C1CC1

Ki [3]: 2 nM
Ki [1]: 14 nM
Ki [4]: 57 nM
Ki [2]: 715 nM
SMILES: O=C(Nc1ccc(-c2ccncc2)c(-c2cccc(F)c2)n1)C1CC1

Ki [3]: 42 nM
Ki [1]: 914 nM
Ki [4]: 302 nM
inhibition [5]: 11%
SMILES: O=C(Nc1ccc(-c2ccncc2)c(-c2nccs2)n1)C1CC1

Ki [3]: 78 nM
Ki [1]: 320 nM
Ki [4]: 813 nM
Ki [2]: 4850 nM
SMILES: O=C(Nc1ccc(-c2ccncc2)c(-c2cncs2)n1)C1CC1

Ki [3]: 1 nM
Ki [1]: 82 nM
Ki [4]: 30 nM
Ki [2]: 1340 nM
SMILES: O=C(Nc1ccc(-c2ccncc2)c(-c2ccco2)n1)C1CC1

Ki [3]: 4 nM
Ki [1]: 35 nM
Ki [4]: 39 nM
inhibition [5]: 27%
SMILES: O=C(Nc1ccc(-c2ccncc2)c(-c2ccc(F)cc2)n1)C1CC1

More lines, now with the values behind:

SMILES: c1cncc(Nc2ncc(-c3ccncn3)c(-c3ccco3)n2)c1
Ki [1]: 2820 nM
Ki [2]: 1040 nM

SMILES: CC(=O)Nc1ccc(-c2ccncc2)c(-c2cccc(F)c2)n1
Ki [3]: 30 nM
Ki [1]: 58 nM
Ki [4]: 286 nM
Ki [2]: 471 nM

SMILES: Cc1ccc(-c2nc(NC(=O)C3CC3)ccc2-c2ccncc2)o1
Ki [3]: 5 nM
Ki [1]: 25 nM
Ki [4]: 11 nM
Ki [2]: 189 nM

SMILES: CC(=O)Nc1ccc(-c2ccncn2)c(-c2ccco2)n1
Ki [3]: 47 nM
inhibition [13]: 20%
inhibition [14]: 7%
inhibition [5]: 28%

SMILES: O=C(Nc1ccc(C2N=NN=N2)c(-c2ccco2)n1)C1CC1
inhibition [15]: 23%
inhibition [14]: 1%
Ki [4]: 1640 nM
inhibition [5]: 8%

SMILES: CC(=O)Nc1ncc(-c2ccncn2)c(-c2ccco2)n1
Ki [3]: 380 nM
inhibition [13]: 10%
inhibition [14]: 2%
inhibition [5]: 2%

SMILES: O=C(Nc1ccc(-c2ccncc2)c(Cl)n1)C1CC1
Ki [3]: 380 nM
inhibition [13]: 7%
inhibition [14]: 5%
inhibition [5]: 14%

SMILES: O=C(Nc1ccc(-c2ccncc2F)c(-c2ccco2)n1)C1CC1
Ki [3]: 1 nM
metabolised at 0.5 h, 5 µM [16]: 77%
Ki [1]: 374 nM
metabolised at 0.5 h, 5 µM [8]: 99%
Ki [4]: 150 nM
inhibition [5]: 11%

SMILES: O=C(Nc1ccc(-c2ccncc2)cn1)C1CC1
inhibition [13]: 2%
inhibition [15]: 29%
inhibition [14]: 8%
inhibition [5]: 7%

SMILES: O=C(Nc1ccc(-c2ccncc2Cl)c(-c2ccco2)n1)C1CC1
Ki [3]: 5 nM
Ki [1]: 250 nM
Ki [4]: 147 nM
Ki [2]: 1870 nM

SMILES: N#Cc1ccc(NC(=O)C2CC2)nc1-c1ccco1
Ki [3]: 41 nM
Ki [1]: 289 nM
Ki [4]: 12 nM
Ki [2]: 326 nM

SMILES: CC(=O)Nc1ccc(-c2ccncc2)c(-c2ccco2)n1
Ki [3]: 7 nM
Ki [1]: 358 nM
Ki [4]: 209 nM
Ki [2]: 333 nM

SMILES: O=C(Nc1ccc(-c2ccncc2)c(-c2ncco2)n1)C1CC1
Ki [3]: 32 nM
Cmax [6]: 761 ng/mL
Ki [1]: 702 nM
Vd [7]: 1.6 L/kg
metabolised at 0.5 h, 5 µM [17]: 27%
clearance [9]: 31.7 mL/min/kg
Ki [4]: 1360 nM
inhibition [5]: 22%
half-life [10]: 54 min
metabolised at 0.5 h, 5 µM [11]: 14%
AUC(0-inf) [12]: 533 ng·h/mL

SMILES: O=C(Nc1ccc(-c2ccncc2)c(-n2cccn2)n1)C1CC1
Ki [3]: 72 nM
inhibition [14]: 22%
Ki [4]: 1440 nM
inhibition [5]: 2%

SMILES: O=C(Nc1ccc(Br)c(-c2ccco2)n1)C1CC1
Ki [3]: 28 nM
Ki [1]: 285 nM
Ki [4]: 35 nM
Ki [2]: 617 nM

SMILES: O=C(Nc1ccc(-c2ccncn2)c(-c2ccco2)n1)C1CC1
Ki [3]: 4 nM
Cmax [6]: 538 ng/mL
Tmax [18]: 18 min
Ki [1]: 931 nM
Vd [7]: 1.6 L/kg
metabolised at 0.5 h, 5 µM [8]: 27%
clearance [9]: 63.3 mL/min/kg
Ki [4]: 239 nM
bioavailability [19]: 39%
half-life [10]: 30 min
Ki [2]: 3750 nM
AUC(0-inf) [12]: 267 ng·h/mL

SMILES: CC(=O)c1nc(NC(=O)C2CC2)ccc1-c1ccncc1
Ki [3]: 3670 nM
inhibition [13]: 2%
inhibition [14]: 6%
inhibition [5]: 2%
